In paper PMC13504986 (Nature, 2024):
pEC50: −log10 of the molar value.

Columns and labels:
[1] = target: T1, OR1A1 (Homo sapiens, UniProt Q9P1Q5); assay: GloSensor cAMP assay, HEK293T with RTP1S; assay type: cell-based
T1 sequence (Q9P1Q5 1-309): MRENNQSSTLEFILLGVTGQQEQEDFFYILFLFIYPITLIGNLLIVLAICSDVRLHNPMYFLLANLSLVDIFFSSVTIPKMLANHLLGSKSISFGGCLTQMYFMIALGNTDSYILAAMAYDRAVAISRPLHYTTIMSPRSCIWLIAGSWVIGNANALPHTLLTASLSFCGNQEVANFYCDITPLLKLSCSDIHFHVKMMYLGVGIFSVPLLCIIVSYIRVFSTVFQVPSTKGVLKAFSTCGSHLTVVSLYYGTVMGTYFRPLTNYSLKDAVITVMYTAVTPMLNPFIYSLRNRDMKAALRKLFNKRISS

[2] = target: T2, OR51E1 (Homo sapiens, UniProt Q8TCB6); assay: GloSensor cAMP assay, HEK293T; assay type: cell-based
T2 sequence (Q8TCB6 2-318 limits assumed): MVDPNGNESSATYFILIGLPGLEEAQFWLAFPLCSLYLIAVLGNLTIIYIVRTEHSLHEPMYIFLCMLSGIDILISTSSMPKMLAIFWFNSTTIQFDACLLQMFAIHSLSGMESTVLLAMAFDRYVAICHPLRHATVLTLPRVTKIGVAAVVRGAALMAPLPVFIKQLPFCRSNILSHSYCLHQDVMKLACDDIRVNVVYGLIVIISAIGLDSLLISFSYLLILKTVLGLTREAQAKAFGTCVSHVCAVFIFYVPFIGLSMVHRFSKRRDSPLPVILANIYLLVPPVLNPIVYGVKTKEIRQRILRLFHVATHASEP

Row | Compound | pEC50 [1] | pEC50 [2]
1 | CC(C)[C@@H]1CC[C@@H](C)C[C@H]1O [L-menthol] | 4.41 | –
2 | C=C(C)[C@@H]1CC=C(C)C(=O)C1 [R-carvone] | 6.29 | –
3 | CCCCC(=O)O [pentanoate] | – | 4.46
